Patent US10287619B2, “Measurement method for dehydrogenase and substrate concentration thereof, electron mediator, and measurement reagent for dehydrogenase including said electron mediator and for substrate thereof” (Dojindo Laboratories, priority 2014, dated 2019)

What was measured:
[1] = system: Human myeloid leukemia cells (HL60); test: Evaluation of electron transfer with living cells (WST-8 formazan formation); format: cell-based; conditions: HL60 25,000 to 0 cells/well; WST-8 500 μM, electron mediator 10 μM; 37° C. for 3 hours; FIG. 3A-3D
Protocol: Examples of the evaluation of the electron transfer between the electron mediators and the living cells are shown. For comparison, a similar experiment was carried out using 1-Methoxy PMS, a known electron mediator that carries out electron transfer with the living cells. Human myeloid leukemia cells (HL60) were seeded on a 96 well microplate at 25,000 to 0 cells/well, the measurement reagent was added at a final concentration shown below, after reacting at 37° C. for 3 hours and absorbance at 450 nm was measured. Final concentration of the measurement reagent: WST-8 (500 μM), the electron mediator (10 μM).

[2] = system: Chinese Hamster Ovarian (CHO) cells; test: Cytotoxicity assay using LDH leaked out of the dead cells as an index; format: cell-based; conditions: comparison of the IC50 obtained with the electron mediator of the invention (FIG. 5A) and with the commercial LDH-Cytotoxicity Assay Kit (FIG. 5B); MMC 1 mM to 0.0001 mM, 20 hours
Protocol: The example of the cytotoxicity assay using the LDH leaked out of the dead cell as an index and the solutions of the chromogenic reagent prepared using the electron mediator according to the present invention is shown. As a model of the cytotoxicity assay, cytotoxicity of mitomycin C (MMC) against Chinese Hamster Ovarian (CHO) cells was assayed.
A suspension of the CHO cells at the concentration of 1.5×10^5 cells/mL was prepared using serum-containing medium and 100 μL of the suspension was seeded to each well of a 96 well microplate. After incubating at 37° C. for 4 hours in a CO2 incubator, 10 μL of MMC was added at final concentration of 1 mM to 0.0001 mM. The microplate was incubated at 37° C. for 20 hours in the CO2 incubator. […] After incubating at 37° C. for 20 minutes in a CO2 incubator, the absorbance at 450 nm was measured using a microplate reader.
A comparative experiment using a commercially available dead cell assay kit (BioPioneer Inc., LDH-Cytotoxicity Assay Kit) using LDH as an index. […] The measurement method of the absorbance was similar to that as mentioned above except that supernatant of the medium was taken and transferred to another plate so as not to be contaminated with the living cells upon conducting the chromogenic reaction.

Row | Compound | formation of the formazan attributed to the living cells (absorbance at 450 nm) [1] | 50% Inhibition concentration (IC50) against the CHO cell [2]
1 | COS(=O)(=O)[O-].COc1cccc2c1nc1ccccc1[n+]2C [1-Methoxy PMS, 1-methoxy phenazine methosulfate] | increasing of absorbance | 
2 | CO[C@@]12[C@H](COC(N)=O)C3=C(C(=O)C(C)=C(N)C3=O)N1C[C@@H]1N[C@@H]12 [mitomycin C] |  | No difference was observed
